Measurements as given in patent US5374641A, “N-(3-pyridylalkyl)sulfonamide compounds which have useful pharmaceutical activity” (Terumo Kabushiki Kaisha, priority 1991, dated 1994).
pIC50: −log10 of the molar value.

Assays:
thromboxane synthetase [1] = target: T1, thromboxane synthetase (Homo sapiens, UniProt P24557); assay: Test Example 7: Thromboxane synthetase inhibiting activity (human PRP, thrombin, RIA); type: cell-based
T1 sequence (P24557 1-533): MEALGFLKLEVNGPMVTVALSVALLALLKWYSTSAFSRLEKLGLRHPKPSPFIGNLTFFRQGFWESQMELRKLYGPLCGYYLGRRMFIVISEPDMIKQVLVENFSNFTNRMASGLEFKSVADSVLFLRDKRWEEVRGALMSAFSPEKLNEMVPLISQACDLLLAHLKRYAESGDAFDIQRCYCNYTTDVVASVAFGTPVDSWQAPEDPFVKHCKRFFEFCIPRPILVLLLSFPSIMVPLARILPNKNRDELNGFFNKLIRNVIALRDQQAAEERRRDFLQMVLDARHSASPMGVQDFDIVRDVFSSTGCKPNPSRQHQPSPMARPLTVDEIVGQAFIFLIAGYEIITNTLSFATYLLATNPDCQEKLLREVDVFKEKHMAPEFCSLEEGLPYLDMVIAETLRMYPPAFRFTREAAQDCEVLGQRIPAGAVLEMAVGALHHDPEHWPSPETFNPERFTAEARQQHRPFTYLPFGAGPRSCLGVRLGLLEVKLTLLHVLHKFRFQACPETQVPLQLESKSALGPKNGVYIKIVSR
Protocol: A blood sample was collected from human fore arm using a syringe containing 3.8% sodium citrate solution (1/10 volume of the blood to be collected) and centrifuged to obtain platelet rich plasma (PRP; 3×10^5 platelets/μl ).
(§1) A 200 μl portion of the thus prepared PRP and 23.75 μl of physiological saline were put in a cuvette, the cuvette was set into the aforementioned aggregometer and the contents in the cuvette were incubated at 37° C. for 2 minutes. Thereafter, 1.25 μ1 dimethyl sulfoxide (DMSO) solution of each of the N-(3-pyridylalkyl)sulfonamide derivatives obtained in Examples 36, 37, 38 and 40 was put in the cuvette and incubated for 3 minutes, followed by the addition of 20 U/ml solution of thrombin to cause platelet aggregation. A portion of the supernatant after aggregation reaction was mixed with diethyl ether/methanol/0.2M citric acid (30:4:1), and the thus formed thromboxane A2 was extracted and its quantity was analyzed by RIA using a kit of Amersham.

[2] = tested on: platelet aggregation caused by U-46619; assay: Test Examples 6: Platelet aggregation inhibiting activity (human PRP, U-46619); type: cell-based
Protocol: A blood sample was collected from human fore arm using a syringe containing 3.8% sodium citrate solution (1/10 volume of the blood to be collected) and centrifuged to obtain platelet rich plasma (PRP; 3×10^5 platelets/μl).
(§2) Platelet aggregation was measured using an aggregometer (Hematracer VI, Niko Bioscience Co., Ltd.) by putting 200 μof the thus prepared PRP and 23.75 μl of physiological saline in a cuvette, setting the cuvette into the aggregometer and incubating the contents at 37° C. for 2 minutes, adding 1.25 μl dimethyl sulfoxide (DMSO) solution of each of the N-(3-pyridylalkyl)sulfonamide derivatives obtained in Examples 35, 36, 37 and 42 and incubating for 3 minutes, and then adding U-46619 (Cayman Chemical Co., Inc.) which is a stable PGG2 /H2 derivative having a strong platelet aggregation causing activity.
In this instance, the term "IC50 " as used herein means concentration of the N-(3-pyridylalkyl)sulfonamide derivative of the present invention required to inhibit 50% of the platelet aggregation when platelet aggregation without introducing the inventive derivative was defined as 100%.

[3] = tested on: tracheal smooth muscle contraction caused by the U-46619; assay: Test Examples 8: Competitive activity against TXA2.PGH2 (tracheal smooth muscle contraction caused by U-46619); type: cell-based, Hartley guinea pig; settings: guinea pig trachea
Protocol: In vitro competitive activity (IC50) of the derivative of the present invention against TXA2 ·PGH2 was measured as follows.
(§3) Sections of tracheae excised from Hartley guinea pig males of 300 to 500 g in weight were suspended with a load of 0.3 g in Tyrode solution (30° C.) contained in a Magnus vessel which was aerated with a mixed gas system of 95% oxygen and 5% carbon dioxide. After about 1 hour of stabilization, U-46619 (a TXA2 ·PGH2 analog, manufactured by Cayman Chemical Co., Inc. ) was added to the solution in a concentration of 10^-7 M. Thereafter, effect of the addition of the inventive N-(3-pyridylalkyl)sulfonamide derivative obtained in Example 4 on the tracheal smooth muscle contraction caused by the U-46619 was measured and the IC50 value was calculated.

[4] = tested on: platelet aggregation caused by U-46619; assay: Test Example 1: Platelet aggregation inhibiting activity (human PRP, U-46619); type: cell-based; settings: for pIC50: Platelet, 320 nM U-46619, 37° C., read-out: Inhibitory effect against platelet aggregation caused by U-46619 (IC50); for platelet aggregation inhibiting activity (in words): U-46619
Protocol: (§4) A blood sample was collected from human fore arm using a syringe containing 3.8% sodium citrate solution (1/10 volume of the blood to be collected) and centrifuged to obtain platelet rich plasma (PRP; 3 ×10^5 platelets/μ1).
as §2, with “200 µl of” for “200 μof”, “23.75 µl” for “23.75 μl”, “1.25 μ1” for “1.25 μl”, “Examples 1, 3, 4, 6” for “Examples 35, 36, 37”, “and 8” for “and 42”, “stable PGG2/ H2” for “stable PGG2 /H2”
In this instance, the term "IC50 "as used herein means concentration of the N-(3-pyridylalkyl)sulfonamide derivative of the present invention required to inhibit 50% of the platelet agglutination when platelet aggregation without introducing the inventive derivative was defined as 100%.

[5] = tested on: tracheal smooth muscle contraction caused by the U-46619; assay: Test Example 3: Competitive activity against TXA2.PGH2 (tracheal smooth muscle contraction caused by U-46619); type: cell-based, Hartley guinea pig; settings: guinea pig trachea
Protocol: In vitro competitive activity (IC50) of the derivative of the present invention against TXA2· PGH2 was measured as follows.
as §3, with “TXA2· PGH2” for “TXA2 ·PGH2”, “Inc.)” for “Inc. )”

thromboxane synthetase [6] = target: T1, thromboxane synthetase; assay: Test Example 2: Thromboxane synthetase inhibiting activity (human PRP, thrombin, RIA); type: cell-based; settings: 20 U/ml thrombin, RIA, read-out: Inhibition of thromboxane A2 synthesis (IC50)
Protocol: as §4
as §1, with “200 μ1” for “200 μl”, “23.75 µl” for “23.75 μl”, “Examples 1, 3” for “Examples 36, 37, 38”, “and 7” for “and 40”, “acid (30:4:1 ),” for “acid (30:4:1),”

[7] = Cavia porcellus, U-46619 10^-7 M, in vitro

SMILES | pIC50 (thromboxane synthetase [1]; 20 U/ml thrombin, RIA, read-out: Inhibition of thromboxane A2 synthesis (IC50)) | thromboxane synthetase inhibiting activity (in words) (thromboxane synthetase [1]; thrombin) | pIC50 ([2]; Platelet, 320 nM U-46619, 37° C., read-out: Inhibitory effect against platelet aggregation caused by U-46619 (IC50)) | platelet aggregation inhibiting activity (in words) ([2]; U-46619) | pIC50 [3, 7] | in vitro competitive activity against TXA2.PGH2 (in words) ([3]; U-46619) | pIC50 [4] | platelet aggregation inhibiting activity (in words) [4] | in vitro competitive activity against TXA2.PGH2 (in words) ([5]; U-46619) | pIC50 (thromboxane synthetase [6]) | pIC50 [5, 7]
CCOC(=O)/C(C)=C/c1ccc(C(CNS(=O)(=O)c2ccc(Cl)cc2)Cc2cccnc2)cc1 (stereo not drawn) [Example 37, ethyl 4-[1-(4-chlorobenzenesulfonamido)-3-(3-pyridyl)-2-propyl]-α-methylcinnamate] | 5.05 | excellent thromboxane synthetase inhibiting activity | 4.18 | markedly high platelet aggregation inhibiting activity | 7.06 | excellent in vitro competitive |  |  |  |  | 
CCOC(=O)COc1ccc(C(CNS(=O)(=O)c2ccc(Cl)cc2)c2cccnc2)cc1 (stereo not shown) [Example 4, ethyl 4-[2-(4-chlorobenzenesulfonamido)-1-(3-pyridyl)ethyl]phenyloxyacetate] |  |  |  |  |  |  | 4.29 | markedly high platelet aggregation inhibiting activity | excellent in vitro competitive activity | 7.48 | 
O=C(O)COc1ccc(C(CNS(=O)(=O)c2ccc(Cl)cc2)c2cccnc2)cc1 (stereo not shown) [Example 5, 4-[2-(4-chlorobenzenesulfonamido)-1-(3-pyridyl)ethyl]phenyloxyacetic acid] |  |  |  |  |  |  | 4.80 | markedly high platelet aggregation inhibiting activity |  |  | 5.17
